In patent US8846571B2, “Herbicidal compositions containing benzoylpyrazole compounds” (priority 2008, dated 2014):
Read-outs that look alike come from different tables or passages of the source.

Assays:
prickly sida = experiment: Foliar treatment pot test (Example 1), visual growth inhibition of prickly sida; type: in vivo, prickly sida (Side spinosa L.); conditions: read-out: Growth inhibition rate (%) Measured value
Description: (§1) When the herbicidal activity in a case where two active ingredients are combined, is larger than the simple sum of the respective herbicidal activities of the two active ingredients (the expected activity), it is called a synergistic effect. The activity expected by the combination of two active ingredients can be calculated as follows (Colby S. R., “Weed”, vol. 15, p. 20-22, 1967). E=α+β−(α×β÷100) where
(§2) Upland field soil was put into a 1/1,000,000 hectare pot, and seeds of various plants were sown. When the respective plants reached predetermined leaf stage, herbicidal compositions in predetermined amounts were diluted with water in an amount corresponding to 300 L/ha and applied for foliar treatment by a small sprayer.
(§3) Further, in accordance with the above Colby's formula, the growth inhibition rate (calculated value) was calculated. In Tables, with respect to the compound Q, Compound Nos. in Table 1 are described, and with respect to other herbicidal compounds, common names are described.

[1] = Foliar treatment pot test (Example 1), plant name misprinted as 'days after treatment'; type: in vivo; conditions: 4.0-5.0 leaf stage
Description: as §1, §2, §3

crabgrass = experiment: Foliar treatment pot test (Example 1), visual growth inhibition of crabgrass; type: in vivo
Description: as §1, §2, §3

velvetleaf = experiment: Foliar treatment pot test (Example 1), visual growth inhibition of velvetleaf; type: in vivo, velvetleaf (Abutilon theophrasti MEDIC.)
Description: as §1, §2, §3

various plants = experiment: Foliar treatment pot test (Example 1) on various plants; type: in vivo; conditions: Setaria, 336 h, fiant foxtail, 4.0-5.0 leaf stage, 14 days after treatment, read-out: Growth inhibition rate (%) of fiant foxtail, Measured value
Description: as §1, §2, §3

[2] = 504 h, 21 days after treatment, read-out: Growth inhibition rate (%) Measured value

## CCNc1nc(Cl)nc(NC(C)C)n1 [Atrazine, atrazine]
Prickly sida; 504 h, prickly sida 3.0-3.3 leaf stage, 21 days after treatment, 63 g/ha
  inhibition at 63 g/ha: 30%
Prickly sida; 504 h, prickly sida 3.0-3.3 leaf stage, 21 days after treatment, 125 g/ha
  inhibition at 125 g/ha: 45%
[1]; [2]
  inhibition at 125 g/ha: 0%

## COc1c(Cl)ccc(Cl)c1C(=O)O [Dicamba, dicamba]
[1]; 336 h, 14 days after treatment, 200 g/ha, read-out: Growth inhibition rate (%) Measured value
  inhibition at 200 g/ha: 0%

## N.O=C(O)CNCP(=O)(O)O [Glyphosate-ammonium, glyphosate-ammonium]
crabgrass; crabgrass 5.0-5.5 leaf stage, 21 days after treatment, 100 g/ha
  Growth inhibition rate (%) Measured value: 10%

## COC(=O)c1c(Cl)nn(C)c1S(=O)(=O)NC(=O)Nc1nc(OC)cc(OC)n1 [Halofulfuron-methyl]
crabgrass; 5.0-5.5 leaf stage, 14 days after treatment, 20 g/ha
  Growth inhibition rate (%) of crabgrass, Measured value: 0%

## CS(=O)(=O)c1ccc(C(=O)C2C(=O)CCCC2=O)c([N+](=O)[O-])c1 [Mesotrione]
[1]; 504 h, 21 days after treatment, 15 g/ha, read-out: Growth inhibition rate (%) of days after treatment, Measured value
  inhibition at 15 g/ha: 5%

## CCOC(=O)OC(C)Oc1c(C(=O)c2ccc(S(C)(=O)=O)c(OCCOC)c2C)cnn1C (stereo not drawn) [NO. 2]
velvetleaf; velvetleaf 4.0-4.3 leaf stage, 22 days after treatment, 3.75 g/ha
  Growth inhibition rate (%) Measured value: 0%

## CCn1ncc(C(=O)c2ccc(S(C)(=O)=O)c(OCCOC)c2C)c1OC(C)OC(=O)OC (stereo not drawn) [NO. 4, 1-(1-ethyl-4-(3-(2-methoxyethoxy)-2-methyl-4-(methylsulfonyl)benzoyl)-1H-pyrazol-5-yloxy)ethyl methyl carbonate]
Various plants; 7 g/ha
  inhibition at 7 g/ha: 75%
Prickly sida; 480 h, prickly sida 1.5-2.4 leaf stage, 20 days after treatment, 75 g/ha
  inhibition at 75 g/ha: 55%
crabgrass; Digitaria sanguinalis, foliar, 336 h, crabgrass 3.5-4.3 leaf stage, 14 days after treatment, 5 g/ha, read-out: Growth inhibition rate (%) Measured value
  inhibition at 5 g/ha: 90%
crabgrass; Digitaria sanguinalis, foliar, 552 h, 4.0-5.1 leaf stage, 23 days after treatment, 15 g/ha, read-out: Growth inhibition rate (%) of crabgrass, Measured value
  inhibition at 15 g/ha: 85%
[1]; 504 h, 21 days after treatment, 3.5 g/ha, read-out: Growth inhibition rate (%) of days after treatment, Measured value
  inhibition at […]: 40%
[1]; 504 h, 21 days after treatment, 7 g/ha, read-out: Growth inhibition rate (%) of days after treatment, Measured value
  inhibition at 7 g/ha: 60%
velvetleaf; 3.0-4.0 leaf stage, 14 days after treatment, 15 g/ha
  Growth inhibition rate (%) of velvetleaf, Measured value: 80%
velvetleaf; Abutilon theophrasti, foliar, 336 h, 3.0-4.0 leaf stage, 14 days after treatment, 15 g/ha, read-out: Growth inhibition rate (%) of velvetleaf, Measured value
  inhibition at 15 g/ha: 73%
velvetleaf; Abutilon theophrasti, foliar, 504 h, velvetleaf 3.1-3.4 leaf stage, 21 days after treatment, 5 g/ha, read-out: Growth inhibition rate (%) Measured value
  inhibition at 5 g/ha: 94%
velvetleaf; Abutilon theophrasti, foliar, 504 h, velvetleaf 3.8-4.4 leaf stage, 21 days after treatment, 15 g/ha, read-out: Growth inhibition rate (%) Measured value
  inhibition at 15 g/ha: 75%
velvetleaf; Abutilon theophrasti, foliar, 528 h, velvetleaf 3.3-3.8 leaf stage, 22 days after treatment, 15 g/ha, read-out: Growth inhibition rate (%) Measured value
  inhibition at 15 g/ha: 89%
velvetleaf; Abutilon theophrasti, foliar, 552 h, 3.0-3.5 leaf stage, 23 days after treatment, 7 g/ha, read-out: Growth inhibition rate (%) of velvetleaf, Measured value
  inhibition at 7 g/ha: 75%
velvetleaf; Abutilon theophrasti, foliar, 552 h, 3.0 to 3.5 leaf stage, 23 days after treatment, 15 g/ha, read-out: Growth inhibition rate (%) of velvetleaf, Measured value
  inhibition at 15 g/ha: 93%
velvetleaf; Abutilon theophrasti, foliar, 576 h, 3.2-4.1 leaf stage, 24 days after treatment, 15 g/ha, read-out: Growth inhibition rate (%) of velvetleaf, Measured value
  inhibition at 15 g/ha: 93%

## CCOCCN(C(=O)CCl)C(=C(C)C)c1ccccc1 [Pethoxamid, pethoxamid, reference compound]
crabgrass; crabgrass 4.4-5.0 leaf stage, 13 days after treatment, 200 g/ha
  Growth inhibition rate (%) Measured value: 0%
velvetleaf; velvetleat 3.3-4.2 leaf stage, 13 days after treatment, 200 g/ha
  Growth inhibition rate (%) Measured value: 0%

## CCCCCCCCSC(=O)Oc1cc(Cl)nnc1-c1ccccc1 [Pyridate, pyridate, reference compound]
Various plants; 100 g/ha
  inhibition at 100 g/ha: 0%
[1]; 504 h, 21 days after treatment, 100 g/ha, read-out: Growth inhibition rate (%) of days after treatment, Measured value
  inhibition at 100 g/ha: 0%

## CCc1cccc(C)c1N(C(=O)CCl)[C@@H](C)COC [S-Metolachlor, S-metolachlor]
crabgrass; 4.0-5.0 leaf stage, 14 days after treatment, 150 g/ha
  Growth inhibition rate (%) of crabgrass, Measured value: 0%
crabgrass; crabgrass 4.0-5.1 leaf stage, 21 days after treatment, 300 g/ha
  Growth inhibition rate (%) Measured value: 0%
crabgrass; crabgrass 5.0-6.0 leaf stage, 14 days after treatment, 800 g/ha
  Growth inhibition rate (%) Measured value: 0%
velvetleaf; velvetleaf 3.0-3.5 leaf stage, 21 days after treatment, 300 g/ha
  Growth inhibition rate (%) Measured value: 0%

## CCNc1nc(Cl)nc(NC(C)(C)C)n1 [Terbuthylazine, terbuthylazine]
[1]; 192 h, 8 days after treatment, 250 g/ha, read-out: Growth inhibition rate (%) Measured value
  inhibition at 250 g/ha: 10%
[1]; [2]
  inhibition at 125 g/ha: 0%

## COC(=O)c1sccc1S(=O)(=O)NC(=O)Nc1nc(C)nc(OC)n1 [Thifensulfuron-methyl]
[1]; 504 h, 21 days after treatment, 5 g/ha, read-out: Growth inhibition rate (%) of days after treatment, Measured value
  inhibition at 5 g/ha: 0%
